Where two headings read alike, the source gives them in different places.
Assays:
[1] = test system: human breast adenocarcinoma MCF7 European cell line; test: Proliferation assay (MTT or SRB), MCF7 European cell line; type: cell-based; conditions: for cytotoxic effect of association with paclitaxel: 10 μM sigma-1 receptor antagonist + 10 nM paclitaxel; for IC50: Homo sapiens, read-out: IC50 (concentration of drug that inhibited 50% of cell proliferation)
Experimental: (§1) The human breast adenocarcinoma MCF7 European cell line, the human lung carcinoma A549 cell line and the B16-F10 murine melanoma cell line were obtained from the University of Granada Scientific Instrumentation Centre (Spain) and the American Type Culture Collection (ATCC). The cells were cultured in Dulbecco's modified Eagle's medium (DMEM) (Sigma, St. Louis, Mo., USA), supplemented with 10% heat-inactivated fetal bovine serum (FBS) (Lonza, Walkersville, Md., USA) and 1% of antibiotics mixture of penicillin (10,000 U/mL) and streptomycin (10 mg/mL) in an humidified 5% CO2 incubator at 37° C. of temperature. […] The percentage of viability was calculated by utilizing cells without any treatment as control. […] In the MTT protocol, 20 μL of MTT solution in cell culture medium (5 mg/mL) was added to each well. […] The optical density (OD) of converted dye, which is proportional to the number of viable cells, was measured at 570 nm using a Titertek multiscan colorimeter (Flow Laboratories, Irvine, USA). The percentage of surviving cells was calculated as the OD ratio of treated cells to control (untreated) cells (×100). In the SRB protocol, the cells were washed three times with PBS, and 300 μL of 10% trichloroacetic acid was used to fix the cells (20 minutes at 4° C.). Then, the cells were washed three times with distilled water and left to dry before 300 μL of SRB was added. Incubation under mechanical stirring was continued for 20 minutes, and the excess SRB was removed by the addition of a 1% acetic acid solution. Then, the cells were left to dry. […] Sigma-Aldrich) was used for dye resuspension. The optical density (OD) of SRB was measured at 492 nm (Titertek® Multiskan colorimeter; Flow Laboratories Ltd, Oldham, UK) and analyzed with Ascent software version 2.6 (ThermoLab systems, Helsinki, Finland). In all cases, the percentage of surviving cells was calculated as: [OD treated cells/OD control (untreated) cells)]×100. The IC50 values (concentration of drug that inhibited 50% of cell proliferation) were estimated from the inhibition curves.

[2] = test system: human lung carcinoma A549 cell line; test: Proliferation assay (MTT or SRB), A549 cell line; type: cell-based; conditions: read-out: IC50 (concentration of drug that inhibited 50% of cell proliferation)
Experimental: The cells were cultured in Dulbecco's modified Eagle's medium (DMEM) (Sigma, St. Louis, Mo., USA), supplemented with 10% heat-inactivated fetal bovine serum (FBS) (Lonza, Walkersville, Md., USA) and 1% of antibiotics mixture of penicillin (10,000 U/mL) and streptomycin (10 mg/mL) in an humidified 5% CO2 incubator at 37° C. of temperature. Cultured cells were detached with a trypsin-ethylenediamine tetraacetic acid (EDTA) solution (0.25%) and seeded into 24-well plates at a density of 6-15×10^3 cells per well, depending on the cell line.
After incubation for 24 hours under culture conditions, the cells were treated with either paclitaxel (0.1-50 nM) or Example 1 (5-100 μM). […] The percentage of viability was calculated by utilizing cells without any treatment as control.
After an incubation time of 96 hours with drugs, the cytotoxicity of the treatments toward the cell lines was evaluated in triplícate by the 3-(4,5-dimethylthiazol-2-yl)-2,5-diphenyl tetrazolium bromide (MTT) proliferation assay, as previously described (Clares et al., 2013), or with a sulforhodamine B (SRB) protocol, as previously described (Melguizo et al., 2015). […] The optical density (OD) of converted dye, which is proportional to the number of viable cells, was measured at 570 nm using a Titertek multiscan colorimeter (Flow Laboratories, Irvine, USA). […]

[3] = test system: B16-F10 murine melanoma cell line; test: Proliferation assay (MTT or SRB), B16-F10 cell line; type: cell-based; conditions: for cytotoxic effect of association with paclitaxel: 10 μM sigma-1 receptor antagonist + 10 nM paclitaxel; for IC50: Mus musculus, read-out: IC50 (concentration of drug that inhibited 50% of cell proliferation)
Experimental: as §1

[4] = test system: patients treated for colorectal cancer; test: Phase 2 placebo-controlled clinical trial of Example 1 with oxaliplatin (FOLFOX4/mFOLFOX6); type: in vivo, human
Experimental: Thus, the clinical study titled “A proof-concept phase 2, randomized, placebo-controlled, double blind, multicenter clinical trial in two parallel groups to evaluate the efficacy of Example 1 for reducing the incidence and severity of oxaliplatin-induced peripheral neuropathy in patients treated for colorectal cancer” was performed.
The study period was 24 weeks of chemotherapy (one chemo cycle every 2 weeks=12 chemo cycles) plus 6 weeks (follow-up) and having as relevant safety objective to explore the incidence of adverse events by severity, of serious adverse effects, of adverse events leading to Example 1 discontinuation and of adverse events related to Example 1.
Patients received either: • oral daily Example 1, 400 mg/day, during the first 5 days of every chemotherapy cycle, starting the day before the cycle, up to a maximum of 12 cycles (Arm 1), • or oral daily placebo during the first 5 days of every chemotherapy cycle, starting the day before the cycle, up to a maximum of 12 cycles (Arm 2).
Patients were randomized to one of the two above mentioned Arms.
It was expected that chemotherapy cycles were repeated every 14 days for a maximum of 6 months (12 cycles) in the absence of disease progression or unacceptable toxicity.

sigma (σ-2) site = sigma (σ-2) site (Homo sapiens, UniProt Q5BJF2); conditions: background statement; cited from earlier work
sigma (σ-2) site, sequence (Q5BJF2 whole entry): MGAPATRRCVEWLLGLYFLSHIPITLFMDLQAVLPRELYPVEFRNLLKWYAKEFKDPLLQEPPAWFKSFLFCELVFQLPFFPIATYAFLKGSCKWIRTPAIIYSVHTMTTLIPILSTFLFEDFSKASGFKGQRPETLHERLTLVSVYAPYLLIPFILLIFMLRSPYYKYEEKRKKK

sigma 1 (σ-1) site = sigma 1 (σ-1) site (Homo sapiens, UniProt Q99720); conditions: background statement; cited from earlier work
sigma 1 (σ-1) site, sequence (Q99720 whole entry): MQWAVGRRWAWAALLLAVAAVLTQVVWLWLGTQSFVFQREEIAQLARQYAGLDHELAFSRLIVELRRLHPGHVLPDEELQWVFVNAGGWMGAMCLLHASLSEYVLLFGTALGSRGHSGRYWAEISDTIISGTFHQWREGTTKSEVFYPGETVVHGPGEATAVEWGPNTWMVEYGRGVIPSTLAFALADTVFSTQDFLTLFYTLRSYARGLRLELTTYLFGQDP

[5] = Example 1 400 mg/day oral with oxaliplatin, % apparently of the 27 discontinuations
[6] = Example 1 400 mg/day oral with oxaliplatin, % of n = 62 randomized
[7] = Example 1 400 mg/day oral with oxaliplatin, number of subjects
[8] = patients treated with Example 1 versus placebo

## Cc1cc(OCCN2CCOCC2)nn1-c1ccc2ccccc2c1 [Example 1, 4-{2-[5-Methyl-1-(naphthalen-2-yl)-1H-pyrazol-3-yloxy]ethyl}morpholine]
[1]; MCF7 European cell culture
  cytotoxic effect of association with paclitaxel: better results than Haloperidol and BD-1063
[1]; MCF7 European cell culture, listed as Example-1
  cytotoxic effect of association with paclitaxel: greater than summative
[1]; MCF7, 96 h
  IC50: 83 µM
[2]; A549, 96 h
  IC50: 100 µM
[3]; B16-F10 cell culture
  cytotoxic effect of association with paclitaxel: better results than Haloperidol and BD-1063
[3]; B16-F10 cell culture, listed as Example-1
  cytotoxic effect of association with paclitaxel: greater than summative
[3]; B16-F10, 96 h
  IC50: 27 µM
[4]; [5]
  Discontinuations: Physician decision (%): 11.1%
  Discontinuations: Progressive Disease (%): 7.4%
[4]; [6]
  Number of Completers (%): 56.5%
  Number of discontinuations (%): 43.5%
[4]; Example 1 400 mg/day oral with oxaliplatin, n = 62, number of subjects
  Number of discontinuations: 27
[4]; [7]
  Discontinuations: Physician decision: 3
  Discontinuations: Progressive Disease: 2
[4]; Example 1 400 mg/day oral, first 5 days of each cycle, with oxaliplatin, n = 62 randomized, number of subjects
  Number of Completers: 35
[4]; Example 1 added to chemotherapy versus placebo
  more patients completed the 12 cycles of Oxaliplatin therapy: 14.6%
[4]; [8]
  Oxaliplatin dosing attained: higher Oxaliplatin dosing
  patients discontinued because of cancer progression or physician decision: Less patients
  tolerability of the chemotherapy: tolerated better the chemotherapy

## CC(=O)O[C@H]1C(=O)[C@@]2(C)[C@H]([C@H](OC(=O)c3ccccc3)[C@]3(O)C[C@H](OC(=O)[C@H](O)[C@@H](NC(=O)c4ccccc4)c4ccccc4)C(C)=C1C3(C)C)[C@]1(OC(C)=O)CO[C@@H]1C[C@@H]2O [Paclitaxel, reference compound]
[1]; MCF7 European cells, 96 hours incubation
  IC50: 0.0085 µM
[1]; paclitaxel alone at 10 nM, MCF7 European cell culture
  cytotoxicity: around 35%
[2]; A549, A-549 cells, 96 hours incubation
  IC50: 0.003 µM
[3]; B16-F10 cells, 96 hours incubation
  IC50: 0.015 µM
[3]; paclitaxel alone at 10 nM, B16-F10 cell culture
  cytotoxicity: around 35%

## O=C(CCCN1CCC(O)(c2ccc(Cl)cc2)CC1)c1ccc(F)cc1 [haloperidol, reference compound]
[1]; MCF7 European cell culture
  cytotoxic effect of association with paclitaxel: greater than summative
[3]; B16-F10 cell culture
  cytotoxic effect of association with paclitaxel: greater than summative

## SKF 10047
Sigma (σ-2) site
  affinity for the sigma (σ-2) site: micromolar affinity
Sigma 1 (σ-1) site
  affinity for the sigma 1 (σ-1) site: nanomolar affinity
